According to US5250570A, “Amidobenzene derivatives, compositions and use” (Imperial Chemical Industries PLC, priority 1990, dated 1993):

Legend:
[1] = test system: aldose reductase; experiment: Reduction of sciatic nerve sorbitol levels in streptozotocin-diabetic rats (inhibition of aldose reductase in vivo); set-up: species or system rat; conditions: 5 daily oral doses of 3 mg/kg
Description: Rats are made diabetic (as evidenced by severe glucosuria being present) by dosing with streptozotocin. The animals are then dosed daily with the test compound for one, two or five days. The animals are then sacrificed 2-6 hours after the final dose and the eye lenses and/or sciatic nerves are removed. After a standard work-up procedure the residual sorbitol levels in each tissue are determined by gas liquid chromatography after conversion to the polytrimethylsilyl derivatives. Inhibition of aldose reductase in vivo can then be assessed by comparing the residual sorbitol levels in tissues from the dosed diabetic group of rats with those of an undosed group of diabetic rats and an undosed group of normal rats.
In a variation of the above test diabetic rats are dosed at a fixed daily oral dose for five days and then sacrificed 6 hours after the final dose and the reduction of sciatic nerve sorbitol assessed relative to that in control animals.

[2] = biological target: T1, aldose reductase (Bos taurus, UniProt P16116); experiment: In vitro inhibition of partially purified bovine lens aldose reductase (spectrophotometric); assay type: biochemical; conditions: partially purified aldose reductase from bovine lenses
T1 construct: partially purified aldose reductase is isolated in known manner from bovine lenses; from tissue; host or cells: bovine lens
Source text: Thus, in a standard procedure partially purified aldose reductase is isolated in known manner from bovine lenses. The percentage inhibition of this enzyme's ability in vitro to catalyse the reduction of aldoses to polyhydric alcohols, and particularly to reduce glucose to sorbitol, caused by a test compound can then be determined using standard spectrophotometric methods.

IC50 [2]: 44 nM
SMILES: Cc1cc(NC(=O)COc2ccccc2)cc(C)c1S(=O)(=O)C[N+](=O)[O-] [Example 1, (2,6-dimethyl-4-[2-phenoxyacetamido]phenylsulfonyl)nitromethane]
reduction in sciatic nerve sorbitol levels [1]: 78%
